Three compounds from ChEMBL document CHEMBL5724914, “Linking interpersonal differences in gut microbiota composition and drug biotransformation activity” (2024) can be followed below.

Data set [1] can be described thus: The drug is tested on Z-008 corresponding to metagenome with ENA study accession number: PRJEB37062 and ENA sample accession number: ERS12561808 for biotransformation under anaerobic condition. The drug concentrations were measured over 9 timepoints collected between 0 and 24 hours of incubation by liquid-chromatography-coupled mass spectrometry (LC–MS). The note with it: 2 µM.

For data set [2] the following is noted: human gut metagenome, 24 h, 2 µM.
The nature of data set [3]: The drug is tested on Z-027 corresponding to metagenome with ENA study accession number: PRJEB37062 and ENA sample accession number: ERS12561826 for biotransformation under anaerobic condition. The drug concentrations were measured over 9 timepoints collected between 0 and 24 hours of incubation by liquid-chromatography-coupled mass spectrometry (LC–MS). The note with it: 2 µM.

For data set [4] the following is noted: human gut metagenome, 24 h, 2 µM. The source holds these as a separate data set.
Data set [5] in a line: The drug is tested on Z-019 corresponding to rat gut metagenome with ENA study accession number: PRJEB37062 and ENA sample accession number: ERS12561818 for biotransformation under anaerobic condition. The drug concentrations were measured over 9 timepoints collected between 0 and 24 hours of incubation by liquid-chromatography-coupled mass spectrometry (LC–MS). Particulars: 2 µM.

The conditions of data set [6]: human gut metagenome, 24 h, 2 µM. This is another data set of the same source.
For data set [7] the following is noted: human gut metagenome, 24 h, 2 µM. This is another data set of the same source.
For data set [8] the following is noted: human gut metagenome, 24 h, 2 µM. The source holds these as a separate data set.
Data set [9] in a line: The drug is tested on Z-003 corresponding to pig gut metagenome with ENA study accession number: PRJEB37062 and ENA sample accession number: ERS12561803 for biotransformation under anaerobic condition. The drug concentrations were measured over 9 timepoints collected between 0 and 24 hours of incubation by liquid-chromatography-coupled mass spectrometry (LC–MS). Particulars: 2 µM.

The nature of data set [10]: The drug is tested on WLS-086 corresponding to human gut metagenome with ENA study accession number: PRJEB37062 and ENA sample accession number: ERS12561752 for biotransformation under anaerobic condition. The drug concentrations were measured over 9 timepoints collected between 0 and 24 hours of incubation by liquid-chromatography-coupled mass spectrometry (LC–MS). Particulars: 2 µM.

Data set [11] is described as follows: The drug is tested on WLS-007 corresponding to human gut metagenome with ENA study accession number: PRJEB37062 and ENA sample accession number: ERS12561742 for biotransformation under anaerobic condition. The drug concentrations were measured over 9 timepoints collected between 0 and 24 hours of incubation by liquid-chromatography-coupled mass spectrometry (LC–MS). The note with it: 2 µM.

A short description of data set [12]: The drug is tested on Z-002 corresponding to rabbit gut metagenome with ENA study accession number: PRJEB37062 and ENA sample accession number: ERS12561802 for biotransformation under anaerobic condition. The drug concentrations were measured over 9 timepoints collected between 0 and 24 hours of incubation by liquid-chromatography-coupled mass spectrometry (LC–MS). The note with it: 2 µM.

The conditions of data set [13]: human gut metagenome, 24 h, 2 µM. This is another data set of the same source.
Data set [14] in a line: The drug is tested on Z-010 corresponding to metagenome with ENA study accession number: PRJEB37062 and ENA sample accession number: ERS12561810 for biotransformation under anaerobic condition. The drug concentrations were measured over 9 timepoints collected between 0 and 24 hours of incubation by liquid-chromatography-coupled mass spectrometry (LC–MS). Particulars: 2 µM.

A short description of data set [15]: The drug is tested on Z-023 corresponding to metagenome with ENA study accession number: PRJEB37062 and ENA sample accession number: ERS12561822 for biotransformation under anaerobic condition. The drug concentrations were measured over 9 timepoints collected between 0 and 24 hours of incubation by liquid-chromatography-coupled mass spectrometry (LC–MS). Particulars: 2 µM.

Data set [16] can be described thus: The drug is tested on WLS-069 corresponding to human gut metagenome with ENA study accession number: PRJEB37062 and ENA sample accession number: ERS12561748 for biotransformation under anaerobic condition. The drug concentrations were measured over 9 timepoints collected between 0 and 24 hours of incubation by liquid-chromatography-coupled mass spectrometry (LC–MS). The note with it: 2 µM.

For data set [17] the following is noted: human gut metagenome, 24 h, 2 µM. The source holds these as a separate data set.
A short description of data set [18]: The drug is tested on WLS-052 corresponding to human gut metagenome with ENA study accession number: PRJEB37062 and ENA sample accession number: ERS12561747 for biotransformation under anaerobic condition. The drug concentrations were measured over 9 timepoints collected between 0 and 24 hours of incubation by liquid-chromatography-coupled mass spectrometry (LC–MS). Particulars: 2 µM.

Data set [19] can be described thus: The drug is tested on Z-020 corresponding to rabbit gut metagenome with ENA study accession number: PRJEB37062 and ENA sample accession number: ERS12561819 for biotransformation under anaerobic condition. The drug concentrations were measured over 9 timepoints collected between 0 and 24 hours of incubation by liquid-chromatography-coupled mass spectrometry (LC–MS). Particulars: 2 µM.

Data set [20] can be described thus: The drug is tested on Z-014 corresponding to rat gut metagenome with ENA study accession number: PRJEB37062 and ENA sample accession number: ERS12561814 for biotransformation under anaerobic condition. The drug concentrations were measured over 9 timepoints collected between 0 and 24 hours of incubation by liquid-chromatography-coupled mass spectrometry (LC–MS). The note with it: 2 µM.
Also: call rule not given here.

In the case of `CN1CCN2c3ccccc3Cc3ccccc3C2C1` (stereo not given) [MIANSERIN], the “Bacterial Biotransformation” value in [1], in data set [2], in data set [3], in data set [4], in data set [5] and in data set [6] was “Compound NOT metabolized” throughout. In addition, the “Bacterial Biotransformation” value in data set [7] was “Compound metabolized”; in [8] it was “Compound NOT metabolized”; in data set [9], “Compound metabolized”; in data set [10], “Compound metabolized”; in [11], “Compound NOT metabolized”; in data set [12] it was “Compound metabolized”. Also, the “Bacterial Biotransformation” value in data set [13] is listed as “Compound metabolized”; in data set [14] it was “Compound metabolized”; in data set [15], “Compound NOT metabolized”; in data set [16], “Compound metabolized”; in [17] it was “Compound NOT metabolized”; in data set [18], “Compound NOT metabolized”. The “Bacterial Biotransformation” value in data set [19] and in data set [20] was “Compound NOT metabolized” in each case.

Regarding `CC12CC3CC(C)(C1)CC(N)(C3)C2` [MEMANTINE], the “Bacterial Biotransformation” value in [1], in data set [2], in [3], in data set [4], in [5] and in [6] was “Compound NOT metabolized” each time. Also, the “Bacterial Biotransformation” value in data set [7] was “Compound metabolized”; in data set [8], “Compound NOT metabolized”; in data set [9] it was “Compound NOT metabolized”; in [10] it was “Compound NOT metabolized”; in data set [11], “Compound NOT metabolized”; in data set [12], “Compound NOT metabolized”. The “Bacterial Biotransformation” value in data set [13] was “Compound NOT metabolized”; in [14] it was “Compound NOT metabolized”; in data set [15], “Compound metabolized”; in [16] it was “Compound NOT metabolized”; in data set [17], “Compound NOT metabolized”; in [18] it was “Compound NOT metabolized”. For the same compound, the “Bacterial Biotransformation” value in [19] and in [20] was “Compound NOT metabolized” throughout.

Take `CC(N)C12CC3CC(CC(C3)C1)C2` (stereo not given) [RIMANTADINE]: the “Bacterial Biotransformation” value in data set [1], in data set [2], in data set [3], in [4], in data set [5] and in data set [6] was “Compound NOT metabolized” throughout. Also, the “Bacterial Biotransformation” value in data set [7], in [8], in data set [9], in data set [10], in data set [11] and in data set [12] was “Compound NOT metabolized” in each case. For the same compound, the “Bacterial Biotransformation” value in [13], in data set [14], in [15], in [16], in [17] and in data set [18] was “Compound NOT metabolized” in each case. Also, the “Bacterial Biotransformation” value in data set [19] and in data set [20] was “Compound NOT metabolized” in each case.
